Residual activity data for three compounds are collected here from the kinase profiling compilation of Christmann-Franck et al. (2016).

Sequence of CAMK2A (human) (Q9UQM7 whole entry, looked up): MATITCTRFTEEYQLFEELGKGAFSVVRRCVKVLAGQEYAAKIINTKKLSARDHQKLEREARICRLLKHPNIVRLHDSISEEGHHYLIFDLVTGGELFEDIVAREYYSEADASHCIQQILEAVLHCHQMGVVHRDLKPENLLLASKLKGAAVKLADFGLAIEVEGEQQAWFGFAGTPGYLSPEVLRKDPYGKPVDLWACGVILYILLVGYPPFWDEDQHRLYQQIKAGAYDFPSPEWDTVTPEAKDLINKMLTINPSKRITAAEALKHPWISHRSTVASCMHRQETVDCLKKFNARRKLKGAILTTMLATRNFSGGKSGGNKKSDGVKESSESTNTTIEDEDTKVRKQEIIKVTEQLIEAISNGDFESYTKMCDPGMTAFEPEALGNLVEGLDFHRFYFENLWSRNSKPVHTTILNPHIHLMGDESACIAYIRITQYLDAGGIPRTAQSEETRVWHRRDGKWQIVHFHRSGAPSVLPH
Sequence of IRAK1 (human) (P51617 whole entry, looked up): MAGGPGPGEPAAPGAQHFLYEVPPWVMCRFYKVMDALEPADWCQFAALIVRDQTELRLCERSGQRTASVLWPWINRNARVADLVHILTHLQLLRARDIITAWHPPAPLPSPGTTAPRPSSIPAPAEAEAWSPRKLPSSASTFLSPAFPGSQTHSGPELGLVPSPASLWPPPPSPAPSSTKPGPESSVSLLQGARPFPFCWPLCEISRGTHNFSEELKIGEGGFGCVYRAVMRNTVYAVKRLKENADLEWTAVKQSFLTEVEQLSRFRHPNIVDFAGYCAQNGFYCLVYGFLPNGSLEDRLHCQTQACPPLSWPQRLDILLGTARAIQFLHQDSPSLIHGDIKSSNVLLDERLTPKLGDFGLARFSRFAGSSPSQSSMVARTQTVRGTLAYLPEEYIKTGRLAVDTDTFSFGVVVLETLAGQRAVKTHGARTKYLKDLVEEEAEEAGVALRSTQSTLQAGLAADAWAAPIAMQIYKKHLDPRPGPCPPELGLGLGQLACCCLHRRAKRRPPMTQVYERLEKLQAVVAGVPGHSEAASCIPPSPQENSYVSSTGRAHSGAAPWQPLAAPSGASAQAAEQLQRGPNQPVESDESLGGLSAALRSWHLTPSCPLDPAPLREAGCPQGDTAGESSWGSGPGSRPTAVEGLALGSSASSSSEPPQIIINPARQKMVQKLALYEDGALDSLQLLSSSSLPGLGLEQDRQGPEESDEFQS
Sequence of PNCK (human) (Q6P2M8 whole entry, looked up): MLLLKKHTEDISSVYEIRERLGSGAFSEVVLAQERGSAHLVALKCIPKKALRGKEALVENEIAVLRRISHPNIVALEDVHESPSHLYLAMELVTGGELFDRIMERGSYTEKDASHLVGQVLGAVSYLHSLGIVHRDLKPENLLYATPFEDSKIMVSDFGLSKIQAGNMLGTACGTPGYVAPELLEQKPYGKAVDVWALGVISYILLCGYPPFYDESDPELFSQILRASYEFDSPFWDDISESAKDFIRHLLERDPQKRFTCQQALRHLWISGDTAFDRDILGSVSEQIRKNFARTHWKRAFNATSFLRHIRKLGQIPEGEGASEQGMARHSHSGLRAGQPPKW
Sequence of SGK3 (human) (Q96BR1 whole entry, looked up): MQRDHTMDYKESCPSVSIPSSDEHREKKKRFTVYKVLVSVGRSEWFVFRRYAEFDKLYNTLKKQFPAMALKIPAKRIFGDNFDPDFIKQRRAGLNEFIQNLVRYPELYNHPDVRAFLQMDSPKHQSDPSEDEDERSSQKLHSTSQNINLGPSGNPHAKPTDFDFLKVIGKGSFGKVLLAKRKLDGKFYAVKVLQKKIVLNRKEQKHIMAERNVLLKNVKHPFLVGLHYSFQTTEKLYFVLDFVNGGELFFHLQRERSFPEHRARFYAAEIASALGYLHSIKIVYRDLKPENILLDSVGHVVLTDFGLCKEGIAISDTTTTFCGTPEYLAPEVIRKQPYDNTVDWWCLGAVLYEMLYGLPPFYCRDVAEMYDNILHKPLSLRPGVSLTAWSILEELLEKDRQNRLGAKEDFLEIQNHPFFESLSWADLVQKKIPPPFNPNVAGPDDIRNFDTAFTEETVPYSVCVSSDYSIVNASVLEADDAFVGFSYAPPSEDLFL

One experiment has as its target CDK6 CCND3 (human) (UniProt P30281+Q00534). Kind of experiment: radiometric filter-binding kinase assay, Kinase HotSpot. The following applies: compound 0.5 µM; ATP 10 µM.
In general, residual activity refers to the signal under treatment as a percentage of the control signal. Consider `CC(=O)c1ccc(N2CCOCC2)cc1O`, for which the residual activity stood at 97.4%.
Consider `Cc1ccc(S(=O)(=O)/C=C/C#N)cc1`, for which the residual activity was 104%.

A further experiment deals with RET (human) (UniProt P07949). The experiment is described as above. To be noted: compound 0.5 µM; ATP 10 µM.
Sequence of RET (human) (P07949 whole entry, looked up): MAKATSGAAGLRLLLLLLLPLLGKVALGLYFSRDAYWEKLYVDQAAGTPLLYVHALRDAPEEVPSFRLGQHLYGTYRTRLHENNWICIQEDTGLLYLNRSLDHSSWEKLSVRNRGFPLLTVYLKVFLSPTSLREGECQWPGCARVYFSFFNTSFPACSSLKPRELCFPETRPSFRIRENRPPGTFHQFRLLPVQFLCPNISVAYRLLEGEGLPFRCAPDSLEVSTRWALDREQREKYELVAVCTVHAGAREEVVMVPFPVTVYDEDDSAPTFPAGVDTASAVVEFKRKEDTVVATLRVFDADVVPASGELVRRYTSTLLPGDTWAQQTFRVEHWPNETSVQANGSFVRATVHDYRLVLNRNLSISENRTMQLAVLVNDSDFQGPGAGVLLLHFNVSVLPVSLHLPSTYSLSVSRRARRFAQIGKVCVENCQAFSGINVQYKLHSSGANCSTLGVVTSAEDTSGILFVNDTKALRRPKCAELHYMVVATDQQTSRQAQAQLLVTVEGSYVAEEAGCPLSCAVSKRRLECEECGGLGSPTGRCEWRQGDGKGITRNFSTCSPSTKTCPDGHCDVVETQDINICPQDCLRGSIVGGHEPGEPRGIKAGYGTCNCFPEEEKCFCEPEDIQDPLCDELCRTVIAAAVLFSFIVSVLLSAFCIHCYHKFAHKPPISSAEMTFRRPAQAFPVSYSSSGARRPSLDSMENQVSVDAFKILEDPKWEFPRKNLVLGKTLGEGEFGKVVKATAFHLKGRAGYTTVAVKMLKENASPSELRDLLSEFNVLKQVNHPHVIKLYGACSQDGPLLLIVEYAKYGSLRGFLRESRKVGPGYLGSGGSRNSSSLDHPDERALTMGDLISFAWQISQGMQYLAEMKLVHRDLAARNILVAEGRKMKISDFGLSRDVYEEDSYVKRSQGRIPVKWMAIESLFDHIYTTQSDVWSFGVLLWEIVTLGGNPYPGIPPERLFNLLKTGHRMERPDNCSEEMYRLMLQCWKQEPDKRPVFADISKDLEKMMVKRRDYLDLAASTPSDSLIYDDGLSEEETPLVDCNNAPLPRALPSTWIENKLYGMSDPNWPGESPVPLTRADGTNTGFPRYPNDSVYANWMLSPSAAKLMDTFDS
Regarding `CC#CC(=O)Nc1cc2c(Nc3ccc(F)c(Cl)c3)ncnc2cn1`, the residual activity was determined as 84.3%.
With `CC(=O)c1ccc(N2CCOCC2)cc1O`, the residual activity turned out to be 103%.
As for `Cc1ccc(S(=O)(=O)/C=C/C#N)cc1`, the residual activity is 102%.

Another experiment has as its target PNCK (human) (UniProt Q6P2M8). The description is as above. To be noted: compound 0.5 µM; ATP 10 µM.
For `CC#CC(=O)Nc1cc2c(Nc3ccc(F)c(Cl)c3)ncnc2cn1`, the residual activity stood at 99.4%.
`CC(=O)c1ccc(N2CCOCC2)cc1O`: the residual activity stood at 103%.
On to `Cc1ccc(S(=O)(=O)/C=C/C#N)cc1`, for which the residual activity turned out to be 107%.

The target in another experiment is MAP4K2 (human) (UniProt Q12851). The experiment is described as above. To be noted: compound 0.5 µM; ATP 10 µM.
For `CC#CC(=O)Nc1cc2c(Nc3ccc(F)c(Cl)c3)ncnc2cn1`, the residual activity amounted to 114%.
Take `CC(=O)c1ccc(N2CCOCC2)cc1O`: the residual activity is 116%.
As to `Cc1ccc(S(=O)(=O)/C=C/C#N)cc1`, the residual activity came to 130%.

A further experiment has as its target CAMK2A (human) (UniProt Q9UQM7). The experiment is described as above. The following applies: compound 0.5 µM; ATP 10 µM.
For `CC#CC(=O)Nc1cc2c(Nc3ccc(F)c(Cl)c3)ncnc2cn1`, the residual activity was 108%.
For `CC(=O)c1ccc(N2CCOCC2)cc1O`, the residual activity stood at 104%.
In the case of `Cc1ccc(S(=O)(=O)/C=C/C#N)cc1`, the residual activity was found to be 103%.

For another experiment, the target named is PRKCA (human) (UniProt P17252). The description is as above. To be noted: compound 0.5 µM; ATP 10 µM.
Regarding `CC#CC(=O)Nc1cc2c(Nc3ccc(F)c(Cl)c3)ncnc2cn1`, the residual activity stood at 101%.
Turning to `CC(=O)c1ccc(N2CCOCC2)cc1O`, the residual activity amounted to 73.4%.
Same read-out and setting: under `Cc1ccc(S(=O)(=O)/C=C/C#N)cc1` stands 70.6%.

The next experiment addresses IRAK1 (human) (UniProt P51617). The experiment is described as above. The following applies: compound 0.5 µM; ATP 10 µM.
In the case of `CC#CC(=O)Nc1cc2c(Nc3ccc(F)c(Cl)c3)ncnc2cn1`, the residual activity was found to be 104%.
As for `CC(=O)c1ccc(N2CCOCC2)cc1O`, the residual activity stood at 111%.
For the compound `Cc1ccc(S(=O)(=O)/C=C/C#N)cc1`, the residual activity is 103%.

A further experiment deals with CDK4 CCND3 (human) (UniProt P30281+P11802). Described as above. To be noted: compound 0.5 µM; ATP 10 µM.
As to `CC#CC(=O)Nc1cc2c(Nc3ccc(F)c(Cl)c3)ncnc2cn1`, the residual activity was 105%.
The same measure, in the same setting: under `CC(=O)c1ccc(N2CCOCC2)cc1O` stands 96.4%.
As for `Cc1ccc(S(=O)(=O)/C=C/C#N)cc1`, the residual activity worked out at 100%.

For a further experiment, the target named is ITK (human) (UniProt Q08881). The experiment is described as above. The following applies: compound 0.5 µM; ATP 10 µM.
Sequence of ITK (human) (Q08881 whole entry, looked up): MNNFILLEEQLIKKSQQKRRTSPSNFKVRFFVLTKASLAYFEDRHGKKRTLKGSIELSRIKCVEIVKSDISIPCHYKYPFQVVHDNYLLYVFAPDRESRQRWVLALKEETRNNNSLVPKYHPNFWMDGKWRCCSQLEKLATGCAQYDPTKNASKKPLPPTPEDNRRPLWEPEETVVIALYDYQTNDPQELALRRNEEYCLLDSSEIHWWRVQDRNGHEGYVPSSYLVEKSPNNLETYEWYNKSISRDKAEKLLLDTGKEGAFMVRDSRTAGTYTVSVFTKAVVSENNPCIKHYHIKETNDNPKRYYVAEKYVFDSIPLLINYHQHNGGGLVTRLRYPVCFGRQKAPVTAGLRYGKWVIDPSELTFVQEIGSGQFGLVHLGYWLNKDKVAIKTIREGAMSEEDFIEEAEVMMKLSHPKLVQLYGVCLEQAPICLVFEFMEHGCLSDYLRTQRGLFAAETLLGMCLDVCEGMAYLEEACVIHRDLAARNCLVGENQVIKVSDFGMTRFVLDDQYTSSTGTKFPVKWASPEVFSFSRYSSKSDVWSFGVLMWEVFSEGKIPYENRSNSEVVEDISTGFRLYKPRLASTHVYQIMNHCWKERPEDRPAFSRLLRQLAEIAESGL
For `CC#CC(=O)Nc1cc2c(Nc3ccc(F)c(Cl)c3)ncnc2cn1`, the residual activity was 76.3%.
For `CC(=O)c1ccc(N2CCOCC2)cc1O`, the residual activity came out at 97%.
Turning to `Cc1ccc(S(=O)(=O)/C=C/C#N)cc1`, the residual activity came out at 102%.

For the next experiment, the target named is CLK1 (human) (UniProt P49759). The experiment is described as above. The following applies: compound 0.5 µM; ATP 10 µM.
Consider `CC#CC(=O)Nc1cc2c(Nc3ccc(F)c(Cl)c3)ncnc2cn1`, for which the residual activity stood at 82.5%.
For the compound `CC(=O)c1ccc(N2CCOCC2)cc1O`, the residual activity was 110%.
As for `Cc1ccc(S(=O)(=O)/C=C/C#N)cc1`, the residual activity worked out at 107%.

The next experiment has as its target PRKACA (human) (UniProt P17612). Described as above. To be noted: compound 0.5 µM; ATP 10 µM.
Regarding `CC#CC(=O)Nc1cc2c(Nc3ccc(F)c(Cl)c3)ncnc2cn1`, the residual activity worked out at 97.7%.
On to `CC(=O)c1ccc(N2CCOCC2)cc1O`, for which the residual activity is 102%.
For `Cc1ccc(S(=O)(=O)/C=C/C#N)cc1`, the residual activity amounted to 100%.

The target of the next experiment is CAMK2B (human) (UniProt Q13554). The experiment is described as above. To be noted: compound 0.5 µM; ATP 10 µM.
Regarding `CC#CC(=O)Nc1cc2c(Nc3ccc(F)c(Cl)c3)ncnc2cn1`, the residual activity worked out at 99.6%.
The same measure, in the same setting: the figure for `CC(=O)c1ccc(N2CCOCC2)cc1O` is 105%.
Take `Cc1ccc(S(=O)(=O)/C=C/C#N)cc1`: the residual activity was 106%.

Another experiment has as its target SRPK3 (human) (UniProt Q9UPE1). The description is as above. To be noted: compound 0.5 µM; ATP 10 µM.
`CC#CC(=O)Nc1cc2c(Nc3ccc(F)c(Cl)c3)ncnc2cn1`: the residual activity was 101%.
Same read-out and setting: the figure for `CC(=O)c1ccc(N2CCOCC2)cc1O` is 104%; for `Cc1ccc(S(=O)(=O)/C=C/C#N)cc1` it is 104%.

Another experiment deals with TBK1 (human) (UniProt Q9UHD2). Described as above. The following applies: compound 0.5 µM; ATP 10 µM.
Sequence of TBK1 (human) (Q9UHD2 whole entry, looked up): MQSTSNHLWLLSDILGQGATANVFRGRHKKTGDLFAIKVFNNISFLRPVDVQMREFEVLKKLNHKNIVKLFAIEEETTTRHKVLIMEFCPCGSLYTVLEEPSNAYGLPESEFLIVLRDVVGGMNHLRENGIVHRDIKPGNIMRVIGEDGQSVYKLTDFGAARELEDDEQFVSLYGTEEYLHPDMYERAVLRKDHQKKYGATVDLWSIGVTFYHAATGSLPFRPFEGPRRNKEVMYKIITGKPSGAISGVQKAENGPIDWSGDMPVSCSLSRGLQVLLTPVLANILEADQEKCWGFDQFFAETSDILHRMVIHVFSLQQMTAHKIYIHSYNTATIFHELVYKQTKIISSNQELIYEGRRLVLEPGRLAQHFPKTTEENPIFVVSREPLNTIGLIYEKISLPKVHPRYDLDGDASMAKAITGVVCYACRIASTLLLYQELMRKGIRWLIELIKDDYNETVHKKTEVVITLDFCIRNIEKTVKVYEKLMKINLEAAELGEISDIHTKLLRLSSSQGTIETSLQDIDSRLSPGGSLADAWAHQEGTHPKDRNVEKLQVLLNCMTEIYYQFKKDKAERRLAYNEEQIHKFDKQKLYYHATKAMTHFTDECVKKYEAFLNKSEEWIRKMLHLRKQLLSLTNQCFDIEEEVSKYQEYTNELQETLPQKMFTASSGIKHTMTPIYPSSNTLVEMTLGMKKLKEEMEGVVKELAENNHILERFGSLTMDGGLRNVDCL
As to `CC#CC(=O)Nc1cc2c(Nc3ccc(F)c(Cl)c3)ncnc2cn1`, the residual activity was 105%.
For the compound `CC(=O)c1ccc(N2CCOCC2)cc1O`, the residual activity was 99.1%.
As to `Cc1ccc(S(=O)(=O)/C=C/C#N)cc1`, the residual activity was 83.9%.

Another experiment addresses FRK (human) (UniProt P42685). The experiment is described as above. The following applies: compound 0.5 µM; ATP 10 µM.
`CC#CC(=O)Nc1cc2c(Nc3ccc(F)c(Cl)c3)ncnc2cn1`: the residual activity turned out to be 102%.
With `CC(=O)c1ccc(N2CCOCC2)cc1O`, the residual activity came out at 91.6%.
The same measure, in the same setting: under `Cc1ccc(S(=O)(=O)/C=C/C#N)cc1` stands 91.6%.

For the next experiment, the target named is AKT3 (human) (UniProt Q9Y243). The experiment is described as above. The following applies: compound 0.5 µM; ATP 10 µM.
For the compound `CC#CC(=O)Nc1cc2c(Nc3ccc(F)c(Cl)c3)ncnc2cn1`, the residual activity was 97.8%.
Regarding `CC(=O)c1ccc(N2CCOCC2)cc1O`, the residual activity is 107%.
In the case of `Cc1ccc(S(=O)(=O)/C=C/C#N)cc1`, the residual activity was 93.7%.

In the next experiment the target is CHEK1 (human) (UniProt O14757). The experiment is described as above. The following applies: compound 0.5 µM; ATP 10 µM.
In the case of `CC#CC(=O)Nc1cc2c(Nc3ccc(F)c(Cl)c3)ncnc2cn1`, the residual activity came to 106%.
As to `CC(=O)c1ccc(N2CCOCC2)cc1O`, the residual activity came out at 103%.
As for `Cc1ccc(S(=O)(=O)/C=C/C#N)cc1`, the residual activity amounted to 97.5%.

The target of a further experiment is PAK1 (human) (UniProt Q13153). The description is as above. The following applies: compound 0.5 µM; ATP 10 µM.
Sequence of PAK1 (human) (Q13153 whole entry, looked up): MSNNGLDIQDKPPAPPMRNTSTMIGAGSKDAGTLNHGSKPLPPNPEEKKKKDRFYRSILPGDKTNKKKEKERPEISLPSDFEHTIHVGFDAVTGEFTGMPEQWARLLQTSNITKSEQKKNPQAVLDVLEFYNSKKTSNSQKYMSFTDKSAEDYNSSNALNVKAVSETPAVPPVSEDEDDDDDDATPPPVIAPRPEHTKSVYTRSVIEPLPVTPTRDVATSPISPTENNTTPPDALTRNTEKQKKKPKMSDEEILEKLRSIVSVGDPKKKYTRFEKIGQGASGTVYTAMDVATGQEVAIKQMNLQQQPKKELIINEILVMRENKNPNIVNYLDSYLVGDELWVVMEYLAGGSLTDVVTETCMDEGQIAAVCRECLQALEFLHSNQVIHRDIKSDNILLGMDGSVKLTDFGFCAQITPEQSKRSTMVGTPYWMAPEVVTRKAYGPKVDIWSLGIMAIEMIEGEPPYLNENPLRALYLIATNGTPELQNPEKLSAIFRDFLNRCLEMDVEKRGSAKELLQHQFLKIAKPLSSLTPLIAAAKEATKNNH
Turning to `CC#CC(=O)Nc1cc2c(Nc3ccc(F)c(Cl)c3)ncnc2cn1`, the residual activity came out at 94.5%.
Regarding `CC(=O)c1ccc(N2CCOCC2)cc1O`, the residual activity was 93.7%.
Turning to `Cc1ccc(S(=O)(=O)/C=C/C#N)cc1`, the residual activity was 89.5%.

Another experiment addresses SGK3 (human) (UniProt Q96BR1). Described as above. To be noted: compound 0.5 µM; ATP 10 µM.
Turning to `CC#CC(=O)Nc1cc2c(Nc3ccc(F)c(Cl)c3)ncnc2cn1`, the residual activity amounted to 100%.
On to `CC(=O)c1ccc(N2CCOCC2)cc1O`, for which the residual activity was determined as 105%.
Take `Cc1ccc(S(=O)(=O)/C=C/C#N)cc1`: the residual activity came out at 108%.

The target in the next experiment is PRKD3 (human) (UniProt O94806). The description is as above. The following applies: compound 0.5 µM; ATP 10 µM.
Take `CC#CC(=O)Nc1cc2c(Nc3ccc(F)c(Cl)c3)ncnc2cn1`: the residual activity was determined as 103%.
As for `CC(=O)c1ccc(N2CCOCC2)cc1O`, the residual activity worked out at 98.4%.
As to `Cc1ccc(S(=O)(=O)/C=C/C#N)cc1`, the residual activity was determined as 96.1%.

The next experiment concerns the target CAMK2D (human) (UniProt Q13557). The description is as above. The following applies: compound 0.5 µM; ATP 10 µM.
On to `CC#CC(=O)Nc1cc2c(Nc3ccc(F)c(Cl)c3)ncnc2cn1`, for which the residual activity is 100%.
For the compound `CC(=O)c1ccc(N2CCOCC2)cc1O`, the residual activity worked out at 100%.
The same measure, in the same setting: under `Cc1ccc(S(=O)(=O)/C=C/C#N)cc1` stands 102%.
